Tests used:
[1] = target: T1, purified recombinant human GAC (GLS1) (Homo sapiens, UniProt O94925); assay: GLS1 Enzymatic Activity Assay (dual-coupled enzymatic assay); type: biochemical
T1 sequence (O94925 55-598 isoform O94925-3 limits assumed): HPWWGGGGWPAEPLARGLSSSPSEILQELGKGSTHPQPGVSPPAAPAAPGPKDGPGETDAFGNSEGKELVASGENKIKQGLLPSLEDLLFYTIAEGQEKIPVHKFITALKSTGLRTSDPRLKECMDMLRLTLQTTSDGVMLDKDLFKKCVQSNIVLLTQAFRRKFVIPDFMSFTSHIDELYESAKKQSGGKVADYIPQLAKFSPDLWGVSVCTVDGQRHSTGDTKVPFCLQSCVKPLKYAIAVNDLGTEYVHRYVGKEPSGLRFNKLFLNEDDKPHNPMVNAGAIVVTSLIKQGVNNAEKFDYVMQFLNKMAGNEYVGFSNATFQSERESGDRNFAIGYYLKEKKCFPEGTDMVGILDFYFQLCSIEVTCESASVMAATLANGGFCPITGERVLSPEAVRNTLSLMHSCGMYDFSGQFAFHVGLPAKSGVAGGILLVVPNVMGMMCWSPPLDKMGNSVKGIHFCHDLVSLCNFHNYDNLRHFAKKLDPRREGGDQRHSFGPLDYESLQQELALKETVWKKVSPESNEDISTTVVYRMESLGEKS
Outline: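 Recombinant human GAC (2 nM) preincubated with 50 mM potassium phosphate, then inhibitor (10 min each, RT); 1 mM glutamine, pH 7.4 Hepes buffer, 1% DMSO. Glutamate coupled via glutamate oxidase/HRP to resorufin (Ex 530/Em 590), kinetic or 20-min endpoint; IC50 by four-parameter logistic fit.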

A549 cells = assay: Proliferation Assay (A549 cell viability, Cell Titer Fluor); type: cell-based; settings: Homo sapiens, 72 hours
Outline: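 A549 cells in RPMI 1640 with 10% dialyzed FBS were seeded at 1000 cells/well, grown 24 h, then exposed to compound (0.5% DMSO final) for 72 h at 37 °C, 5% CO2. Viability was read by Cell Titer Fluor fluorescence; EC50 from four-parameter logistic fit.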

SMILES	IC50 [1]	EC50 (A549 cells)
CC(C)(O)c1ccc(CNC(=O)c2cn(CCCCc3cc4c(-c5ccc(OC(F)(F)F)cc5)c(C5CC5)[nH]c4nn3)nn2)cn1 [Example 164, 1-(4-{6-cyclopropyl-5-[4-(trifluoromethoxy)phenyl]-7H-pyrrolo[2,3-c]pyridazin-3-yl}butyl)-N-{[6-(2-hydroxypropan-2-yl)pyridin-3-yl]methyl}-1H-1,2,3-triazole-4-carboxamide]	< 100 nM	100 to 500 nM
Cc1ccc(CNC(=O)c2cn(CCCCc3cc4c(-c5ccc(OC(F)(F)F)cc5)c(C5CC5)[nH]c4nn3)nn2)cn1 [Example 165, 1-(4-{6-cyclopropyl-5-[4-(trifluoromethoxy)phenyl]-7H-pyrrolo[2,3-c]pyridazin-3-yl}butyl)-N-[(6-methylpyridin-3-yl)methyl]-1H-1,2,3-triazole-4-carboxamide]	< 100 nM	100 to 500 nM
CC(C)(O)c1ccc(CNC(=O)c2cn(CCCCc3cc4c(-c5cccc(C(F)(F)F)c5)c(C5CC5)[nH]c4nn3)nn2)cn1 [Example 166, 1-(4-{6-cyclopropyl-5-[3-(trifluoromethyl)phenyl]-7H-pyrrolo[2,3-c]pyridazin-3-yl}butyl)-N-{[6-(2-hydroxypropan-2-yl)pyridin-3-yl]methyl}-1H-1,2,3-triazole-4-carboxamide]	< 100 nM	100 to 500 nM
Cc1ccc(CNC(=O)c2cn(CCCCc3cc4c(-c5cccc(C(F)(F)F)c5)c(C5CC5)[nH]c4nn3)nn2)cn1 [Example 167, 1-(4-{6-cyclopropyl-5-[3-(trifluoromethyl)phenyl]-7H-pyrrolo[2,3-c]pyridazin-3-yl}butyl)-N-[(6-methylpyridin-3-yl)methyl]-1H-1,2,3-triazole-4-carboxamide]	< 100 nM	100 to 500 nM
COc1ncc(-c2c(C3CC3)[nH]c3nnc(CCCCn4cc(C(=O)NCc5ccc(C)nc5)nn4)cc23)c(OC)n1 [Example 168, 1-{4-[6-cyclopropyl-5-(2,4-dimethoxypyrimidin-5-yl)-7H-pyrrolo[2,3-c]pyridazin-3-yl]butyl}-N-[(6-methylpyridin-3-yl)methyl]-1H-1,2,3-triazole-4-carboxamide]	< 100 nM	500 to 5000 nM
CC(C)(O)c1ccc(CNC(=O)c2cn(CCCCc3cc4c(-c5cccc(OC(F)(F)F)c5)c(C5CC5)[nH]c4nn3)nn2)cn1 [Example 169, 1-(4-{6-cyclopropyl-5-[3-(trifluoromethoxy)phenyl]-7H-pyrrolo[2,3-c]pyridazin-3-yl}butyl)-N-{[6-(2-hydroxypropan-2-yl)pyridin-3-yl]methyl}-1H-1,2,3-triazole-4-carboxamide]	< 100 nM	100 to 500 nM
Cc1ccc(CNC(=O)c2cn(CCCCc3cc4c(-c5cccc(OC(F)(F)F)c5)c(C5CC5)[nH]c4nn3)nn2)cn1 [Example 170, 1-(4-{6-cyclopropyl-5-[3-(trifluoromethoxy)phenyl]-7H-pyrrolo[2,3-c]pyridazin-3-yl}butyl)-N-[(6-methylpyridin-3-yl)methyl]-1H-1,2,3-triazole-4-carboxamide]	< 100 nM	100 to 500 nM
CC(C)(O)c1ccc(CNC(=O)c2cn(CCCCc3cc4c(-c5ccoc5)c(C5CC5)[nH]c4nn3)nn2)cn1 [Example 171, 1-{4-[6-cyclopropyl-5-(furan-3-yl)-7H-pyrrolo[2,3-c]pyridazin-3-yl]butyl}-N-{[6-(2-hydroxypropan-2-yl)pyridin-3-yl]methyl}-1H-1,2,3-triazole-4-carboxamide]	< 100 nM	< 100 nM
Cc1ccc(CNC(=O)c2cn(CCCCc3cc4c(-c5ccoc5)c(C5CC5)[nH]c4nn3)nn2)cn1 [Example 172, 1-{4-[6-cyclopropyl-5-(furan-3-yl)-7H-pyrrolo[2,3-c]pyridazin-3-yl]butyl}-N-[(6-methylpyridin-3-yl)methyl]-1H-1,2,3-triazole-4-carboxamide]	< 100 nM	< 100 nM
COc1ncc(-c2c(C3CC3)[nH]c3nnc(CCCCn4cc(C(=O)NCc5cccc(OC(F)(F)F)c5)nn4)cc23)c(OC)n1 [Example 173, 1-{4-[6-cyclopropyl-5-(2,4-dimethoxypyrimidin-5-yl)-7H-pyrrolo[2,3-c]pyridazin-3-yl]butyl}-N-{[3-(trifluoromethoxy)phenyl]methyl}-1H-1,2,3-triazole-4-carboxamide]	< 100 nM	100 to 500 nM
CC(C)(O)c1ccc(CNC(=O)c2cn(CCCCc3cc4c(C5CC5)c(-c5ccccc5F)[nH]c4nn3)nn2)cn1 [Example 174, 1-{4-[5-cyclopropyl-6-(2-fluorophenyl)-7H-pyrrolo[2,3-c]pyridazin-3-yl]butyl}-N-{[6-(2-hydroxypropan-2-yl)pyridin-3-yl]methyl}-1H-1,2,3-triazole-4-carboxamide]	< 100 nM	100 to 500 nM
O=C(NCc1cccc(OC(F)(F)F)c1)c1cn(CCCCc2cc3c(-c4ccccn4)c(-c4ccccc4F)[nH]c3nn2)nn1 [Example 175, 1-{4-[6-(2-fluorophenyl)-5-(pyridin-2-yl)-7H-pyrrolo[2,3-c]pyridazin-3-yl]butyl}-N-{[3-(trifluoromethoxy)phenyl]methyl}-1H-1,2,3-triazole-4-carboxamide]	< 100 nM	500 to 5000 nM
COc1cccc(-c2cc3cc(CCCCn4cc(C(=O)NCc5ccc(C)nc5)nn4)nnc3[nH]2)c1 [Example 176, 1-{4-[6-(3-methoxyphenyl)-7H-pyrrolo[2,3-c]pyridazin-3-yl]butyl}-N-[(6-methylpyridin-3-yl)methyl]-1H-1,2,3-triazole-4-carboxamide]	< 100 nM	100 to 500 nM
O=C(NCc1cccc(OC(F)(F)F)c1)c1cn(CCCCc2cc3c(C4CC4)c(-c4ccccn4)[nH]c3nn2)nn1 [Example 177, 1-(4-(5-cyclopropyl-6-(pyridin-2-yl)-7H-pyrrolo[2,3-c]pyridazin-3-yl)butyl)-N-(3-(trifluoromethoxy)benzyl)-1H-1,2,3-triazole-4-carboxamide 2,2,2-trifluoroacetate]	< 100 nM	500 to 5000 nM
COc1cccnc1-c1c(C2CC2)[nH]c2nnc(CCCCn3cc(C(=O)NCc4cccc(OC(F)(F)F)c4)nn3)cc12 [Example 178, 1-{4-[6-cyclopropyl-5-(3-methoxypyridin-2-yl)-7H-pyrrolo[2,3-c]pyridazin-3-yl]butyl}-N-{[3-(trifluoromethoxy)phenyl]methyl}-1H-1,2,3-triazole-4-carboxamide]	< 100 nM	100 to 500 nM
CC(=O)Nc1ccc(-c2c(C3CC3)[nH]c3nnc(CCCCn4cc(C(=O)NCc5ccc(C)nc5)nn4)cc23)cc1 [Example 179, 1-{4-[6-cyclopropyl-5-(4-acetamidophenyl)-7H-pyrrolo[2,3-c]pyridazin-3-yl]butyl}-N-[(6-methylpyridin-3-yl)methyl]-1H-1,2,3-triazole-4-carboxamide]	< 100 nM	500 to 5000 nM
CC(=O)Nc1ccc(-c2c(C3CC3)[nH]c3nnc(CCCCn4cc(C(=O)NCc5cccc(OC(F)(F)F)c5)nn4)cc23)cc1 [Example 180, 1-{4-[6-cyclopropyl-5-(4-acetamidophenyl)-7H-pyrrolo[2,3-c]pyridazin-3-yl]butyl}-N-{[3-(trifluoromethoxy)phenyl]methyl}-1H-1,2,3-triazole-4-carboxamide]	< 100 nM	500 to 5000 nM

From US20160002248A1, “GLS1 INHIBITORS FOR TREATING DISEASE” (Board of Regents, The University of Texas System, priority 2014, published 2016)
